Results taken from the supplement of paper PMC10307832.

Columns and labels:
Experiment in all cases: relative viability (nuclei count vs DMSO), 5 days (fraction); higher = more cells survive
Kobe2602 + Foretinib = compound: C1=CC(=CC=C1NC(=S)NNC2=C(C=C(C=C2[N+](=O)[O-])C(F)(F)F)[N+](=O)[O-])F [Kobe2602] + COc1cc2c(Oc3ccc(NC(=O)C4(C(=O)Nc5ccc(F)cc5)CC4)cc3F)ccnc2cc1OCCCN1CCOCC1 [Foretinib] (partner 0.25 µM)
Summary of the method: (§1)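 Lung cancer cell lines were pin-tool dosed in 1536-well plates on the day after seeding, with either a lone drug or a fixed anchor-drug dose plus five library-drug doses (not always all listed) in √10 steps. Nuclei were counted on 4× images after 5 days. Relative viability is the ratio of treated-well to vehicle-well nuclei counts, with each value a median of duplicate plates.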

Cabozantinib + Foretinib = compound: COc1cc2nccc(Oc3ccc(NC(=O)C4(C(=O)Nc5ccc(F)cc5)CC4)cc3)c2cc1OC [Cabozantinib] + COc1cc2c(Oc3ccc(NC(=O)C4(C(=O)Nc5ccc(F)cc5)CC4)cc3F)ccnc2cc1OCCCN1CCOCC1 [Foretinib] (partner 0.25 µM)
Summary of the method: as §1

Zosuquidar + Bortezomib = compound: O[C@@H](COc1cccc2ncccc12)CN1CCN([C@@H]2c3ccccc3[C@@H]3[C@H](c4ccccc42)C3(F)F)CC1 [Zosuquidar] + CC(C)C[C@H](NC(=O)[C@H](Cc1ccccc1)NC(=O)c1cnccn1)B(O)O [Bortezomib] (partner 0.002 µM)
Summary of the method: as §1

Zosuquidar + Luminespib = compound: O[C@@H](COc1cccc2ncccc12)CN1CCN([C@@H]2c3ccccc3[C@@H]3[C@H](c4ccccc42)C3(F)F)CC1 [Zosuquidar] + CCNC(=O)c1noc(-c2cc(C(C)C)c(O)cc2O)c1-c1ccc(CN2CCOCC2)cc1 [Luminespib] (partner 0.01 µM)
Summary of the method: as §1

Cell Line | relative viability (Kobe2602 + Foretinib; first compound 0.2 µM) | relative viability (Kobe2602 + Foretinib; first compound 0.6325 µM) | relative viability (Kobe2602 + Foretinib; first compound 2 µM) | relative viability (Kobe2602 + Foretinib; first compound 6.325 µM) | relative viability (Kobe2602 + Foretinib; first compound 20 µM) | relative viability (Cabozantinib + Foretinib; first compound 0.02 µM) | relative viability (Cabozantinib + Foretinib; first compound 0.06325 µM) | relative viability (Cabozantinib + Foretinib; first compound 0.2 µM) | relative viability (Cabozantinib + Foretinib; first compound 0.6325 µM) | relative viability (Cabozantinib + Foretinib; first compound 2 µM) | relative viability (Zosuquidar + Bortezomib; first compound 0.01 µM) | relative viability (Zosuquidar + Bortezomib; first compound 0.03162 µM) | relative viability (Zosuquidar + Bortezomib; first compound 0.1 µM) | relative viability (Zosuquidar + Bortezomib; first compound 0.3162 µM) | relative viability (Zosuquidar + Bortezomib; first compound 1 µM) | relative viability (Zosuquidar + Luminespib; first compound 0.01 µM) | relative viability (Zosuquidar + Luminespib; first compound 0.03162 µM) | relative viability (Zosuquidar + Luminespib; first compound 0.1 µM) | relative viability (Zosuquidar + Luminespib; first compound 0.3162 µM) | relative viability (Zosuquidar + Luminespib; first compound 1 µM)
NCI-H647 | 1.13 | 1.29 | 1.16 | 1.17 | 1.12 | 1.23 | 1.1 | 1.1 | 1.14 | 0.981 | 1.01 | 0.882 | 1.27 | 1.1 | 0.996 | 0.116 | 0.165 | 0.181 | 0.142 | 0.177
NCI-H1755 | 0.948 | 0.914 | 0.915 | 0.879 | 0.868 | 0.911 | 1.01 | 0.92 | 0.917 | 0.856 | 0.923 | 0.873 | 0.901 | 1.12 | 0.934 | 0.335 | 0.729 | 0.564 | 0.358 | 0.471
EPLC-272H | 0.41 | 0.937 | 0.667 | 0.668 | 0.796 | 0.77 | 0.884 | 0.515 | 0.82 | 0.782 | 0.844 | 0.956 | 0.998 | 1.16 | 0.938 | 0.39 | 0.362 | 0.514 | 0.361 | 0.266
NCI-H2228 | 0.923 | 0.806 | 0.734 | 0.817 | 0.862 | 1.08 | 1.26 | 0.932 | 0.794 | 0.672 | 1.06 | 1.02 | 0.634 | 1.14 | 1.17 | 0.124 | 0.163 | 0.185 | 0.171 | 0.206
